Assay results: US10905757B2, “Cross-reactive T cell epitopes of HIV, SIV, and FIV for vaccines in humans and cats” (priority 2012, dated 2021)
Entries after “also recorded” stand apart in the source; their conditions may differ. Ends that are not written are not given here.

Key:
Type in all cases: cell-based, human
[1] = system: CD4+ or CD8+ T cells from HIV+ subjects; test: Intracellular cytotoxin staining (ICS), CD4+ or CD8+ T cells from HIV+ responders; conditions: for cytotoxin and CD107a expression in CD4+ and CD8+ T cells (in words): p24 peptides; for cytotoxin / CTL-associated activity (in words): RT pools and peptides
Protocol: Briefly, 1×10^6PBMCs (freshly isolated) are stimulated with 20 μg of peptides for 6 hours in a total volume of 200 μL in a 96-well plate in presence of Golgi transport inhibitor (37° C., 5% CO2). […] Cells were stained with the LIVE/DEAD® fixable yellow dye (Invitrogen, Eugene, Oreg.). […] The flow cytometry data is collected using BD LSRII and analyzed with the FACS DIVA software.
The cells were subsequently fixed and permeabilized with Cytofix/Cytoperm solution (BD Biosciences) before reaction with anti-cytotoxin antibodies. The antibodies consisted of anti-CD3 APC-H7, anti-CD4 BD Horizon V450, and anti-CD8 FITC followed by anti-GrzB Alexa 700 and anti-GrzA PE (all from BD Biosciences), and anti-perforin PerCP (Abcam, Boston, Mass.).
(§1) In both analyses, 1.0-2.0×10^4 cells were fixed in phosphate-buffered saline (PBS) containing 2% paraformaldehyde and analyzed on BD LSRII using […] Software (BD Biosciences), with a positive threshold of 3% CFSE^low for CFSE-proliferation and 1% T cells expressing cytotoxin for ICS. The final value for each subject was derived after subtraction of the subject's medium control and the average value of peptide-stimulated cells from uninfected control subjects.
Flow cytometry (FACS) for measuring CFSE-proliferation and intracellular cytokine staining (ICS).
Both analyses were performed with BD LSRII and […]™ Software (BD Biosciences), using a positive threshold of >1% CFSE^low for CFSE-proliferation except for ICS studies with threshold of >0.1% T cells expressing cytotoxin.

[2] = system: CD3+CD4+ T cells from HIV+ subjects; test: CFSE-proliferation, CD3+CD4+ T cells from HIV+ subjects; conditions: for CD4^+ T-cell Responder Frequency: responders/tested
Protocol: (§2) 2×10^5-5×10^5 CFSE labeled PBMCs were incubated with 15-20 μg of peptides in 600 μL of RPMI media with 10% FBS for 5 days at 37° C. (5% CO2). After harvesting, they were labeled with allophycocyanin (APC), APC-H7, and Pacific Blue labeled monoclonal antibodies (MAb) to human CD3, CD4, and CD8, respectively and analyzed for T-cell proliferation by flow cytometry using BD LSRII (BD Biosciences). The proliferating CD4^+ or CD8^+ T cell populations were defined from the CD3^+ cell population as either CD3^+CD8^+ or CD3^+CD4^+T cells (mutually exclusive) with low CFSE (CFSE^low) staining.
(§3) Flow cytometry (FACS) for carboxyfluoresein diacetate succinimide ester (CFSE)-proliferation and intracellular cytotoxin staining (ICS). The CFSE-proliferation analysis was performed on PBMC according to the manufacturer's protocol (Invitrogen, Carlsbad, Calif.) and processed as previously described (Lichterfeld et al. (2004)). Modifications consisted of using 2.0-5.0×10^5 CFSE-labeled cells stimulated for 5 days (37° C., 5% CO^2) with 30 μg/well of total peptides in a pool (15 μg/well for individual peptide, Table 10) or 5 μg/mL PHA in AIM V medium containing 25 μg/mL of gentamycin and 10% heat-inactivated human serum. Subsequently these cells were harvested and labeled with the LIVE/DEAD fixable yellow dye (Invitrogen) and then treated 5 min with anti-CD16/CD32 antibody (Biolegend, San Diego, Calif.) for blocking non-specific binding before phenotype-specific antibodies. The following antibodies were used for the CFSE-proliferation analysis: anti-CD4 APC, anti-CD3 APC-H7, and anti-CD8 Pacific Blue (BD Biosciences, San Jose, Calif.).
as §1
(§4) Flow cytometry (FACS) for measuring CFSE-proliferation and intracellular cytokine staining (ICS). Carboxyfluorescein diacetate succinimide ester (CFSE)-proliferation analysis was performed according to the manufacturer's protocol (Invitrogen) and processed as previously described (Lichterfeld et al. 2004) using the following modification: 2.5-5.0×10^5 CFSE-labeled PBMC stimulated for 4-5 days (37° C., 5% CO2) with 15-30 μg of peptides in culture media (AIM V medium, 25 μg/mL gentamycin, and 10% heat-inactivated fetal bovine serum). The ICS analysis was performed as previously described (Horton et al. 2007; Pattacini et al. 2012).
(§5) The antibodies used for the proliferation analysis consisted of anti-CD4 allophycocyanin (APC) anti-CD3 APC-H7, and anti-CD8 Pacific Blue, and those for ICS were anti-CD3 APC-H7, anti-CD4 BD Horizon V450, anti-CD8 FITC, anti-granzyme B (GrzB) Alexa 700, anti-granzyme A (GrzA) PE (BD Biosciences, Cat #555349, 560176, 558207, 560345, 555366, 560213, 558904), and anti-perforin PerCP (Abcam, Cat #ab86319). Both analyses were performed with BD LSRII and […]™ Software (BD Biosciences), using a positive threshold of >1% CFSE^low for CFSE-proliferation except for ICS studies with threshold of >0.1% T cells expressing cytotoxin. The final value for each subject was derived after subtracting the result of each HIV^+ subject with the media control followed by subtraction with the average response of the media-control subtracted HIV^− subjects.

[3] = system: CD3+CD8+ T cells from HIV+ subjects; test: CFSE-proliferation, CD3+CD8+ T cells from HIV+ subjects; conditions: for CD8^+ T-cell Responder Frequency: responders/tested; for responder frequency of CD8+ T-cell proliferation to individual F3 peptides: eight F3 responders
Protocol: as §2, §3, §1, §4, §5

[4] = system: CD8+ T cells from HIV+ subjects; test: Intracellular cytotoxin staining (ICS: perforin, GrzA, GrzB, CD107a), CD8+ T cells from HIV+ subjects
Protocol: Briefly, 1×10^6PBMCs (freshly isolated) are stimulated with 20 μg of peptides for 6 hours in a total volume of 200 μL in a 96-well plate in presence of Golgi transport inhibitor (37° C., 5% CO2). The cells are processed as previously described (Horton et al. (2007)). Cells were stained with the LIVE/DEAD® fixable yellow dye (Invitrogen, Eugene, Oreg.). The monoclonal antibodies fluorochome-conjugated to human cytokines used are: APC-H7 to CD3 (clone SK7); BD Horizon V450 to CD4 (clone RPA-T4); Qdot to CD8 (clone 3B5); PE-cy7 to IFN-γ (clone 4S.B3); APC to IL-2 (clone MQ1-17H12) PerCP to perforin (clone B-D48); Alexa F1.700 to granzyme-B (clone GB11) and PE to granzyme-A (clone CB9). The flow cytometry data is collected using BD LSRII and analyzed with the FACS DIVA software.
The ICS analysis (Horton et al. (2007)) involved stimulating 0.5-1.0×10^6 freshly isolated PBMC for 6 h with the same peptide stimulant and culture conditions as the proliferation analysis in the presence of 1 μg/mL of Golgi transport inhibitor and monensin followed by labeling with LIVE/DEAD fixable yellow dye and then treatment with anti-CD16/CD32 antibody and T-cell phenotypic antibodies. The cells were subsequently fixed and permeabilized with Cytofix/Cytoperm solution (BD Biosciences) before reaction with anti-cytotoxin antibodies. The antibodies consisted of anti-CD3 APC-H7, anti-CD4 BD Horizon V450, and anti-CD8 FITC followed by anti-GrzB Alexa 700 and anti-GrzA PE (all from BD Biosciences), and anti-perforin PerCP (Abcam, Boston, Mass.).
as §1, §4, §5

[5] = large 13-15mer peptides, yr 2, responders to Fp9 or Fp14 pool via CFSE proliferation
[6] = small 9-13mer peptides, yr 4, responders to Fp9 or Fp14 pool via both proliferation and IFNγ

CSCC[C@H](NC(=O)[C@H](Cc1c[nH]c2ccccc12)NC(=O)[C@H](CC(N)=O)NC(=O)[C@H](CCCCN)NC(=O)[C@@H](NC(=O)[C@H](C)NC(=O)[C@H](C)NC(=O)[C@H](CC(=O)O)NC(=O)[C@@H](N)[C@@H](C)O)C(C)C)C(=O)N[C@H](C(=O)O)[C@@H](C)O [Sp14-1c]
cytotoxin and CD107a expression in CD4+ and CD8+ T cells (in words) [1]: slightly lower number of responses

AEARFAPARMQCRAW [Fp9-2]
CD4^+ T-cell Responder Frequency (%) [2, 5]: (14) % | CD4^+ T-cell Responder Frequency [2, 5]: 1/7 | CD8^+ T-cell Responder Frequency (%) [3, 5]: (43) % | CD8^+ T-cell Responder Frequency [3, 5]: 3/7 | Fp9 responders whose CD8+ T cells proliferate to individual 13-15mer peptide ([3]; seven Fp9 responders): 3 of 7

AEQASQEVKN [Hp15-1c]
cytotoxin and CD107a expression in CD4+ and CD8+ T cells (in words) [1]: high cytotoxin and CD107a expression

AEVKLYLKQSLSI [Fp14-3d]
Cytotoxins ([1]; responders to Fp9 or Fp14 peptide pools): Low Cytotoxins (only CD8)

EQQAEARFAPARM [Fp9-1]
CD4^+ T-cell Responder Frequency (%) [2, 5]: (0) % | CD4^+ T-cell Responder Frequency [2, 5]: 0/7 | CD8^+ T-cell Responder Frequency (%) [3, 5]: (14) % | CD8^+ T-cell Responder Frequency [3, 5]: 1/7

Fp9-1/2a (EARFAPARM)
CD4^+ T-cell Responder Frequency [2, 6]: 0/9 | CD4^+ T-cell Responder Frequency (%) [2, 6]: (0) % | CD8^+ T-cell Responder Frequency [3, 6]: 5/9 | CD8^+ T-cell Responder Frequency (%) [3, 6]: (56) %

Fp9-2/3b (APARMQCRA)
CD4^+ T-cell Responder Frequency [2, 6]: 0/9 | CD4^+ T-cell Responder Frequency (%) [2, 6]: (0) % | CD8^+ T-cell Responder Frequency [3, 6]: 3/9 | CD8^+ T-cell Responder Frequency (%) [3, 6]: (33) %

Fp9-3e (ARMQCRAWYL)
CD4^+ T-cell Responder Frequency [2, 6]: 1/9 | CD4^+ T-cell Responder Frequency (%) [2, 6]: (11) % | CD8^+ T-cell Responder Frequency [3, 6]: 3/9 | CD8^+ T-cell Responder Frequency (%) [3, 6]: (33) %

Fp9-3f (APARMQCRAWYL)
CD4^+ T-cell Responder Frequency [2, 6]: 1/9 | CD4^+ T-cell Responder Frequency (%) [2, 6]: (11) % | CD8^+ T-cell Responder Frequency [3, 6]: 4/9 | CD8^+ T-cell Responder Frequency (%) [3, 6]: (44) %

Fp14-1/2a (NTAEVKLYL)
CD4^+ T-cell Responder Frequency [2, 6]: 1/10 | CD4^+ T-cell Responder Frequency (%) [2, 6]: (10) % | CD8^+ T-cell Responder Frequency [3, 6]: 4/10 | CD8^+ T-cell Responder Frequency (%) [3, 6]: (40) %

Fp14-2/3b (AEVKLYLKQ)
CD4^+ T-cell Responder Frequency [2, 6]: 1/10 | CD4^+ T-cell Responder Frequency (%) [2, 6]: (10) % | CD8^+ T-cell Responder Frequency [3, 6]: 3/10 | CD8^+ T-cell Responder Frequency (%) [3, 6]: (30) %

Fp14-2/3c (AEVKLYLKQSL)
CD4^+ T-cell Responder Frequency [2, 6]: 5/10 | CD4^+ T-cell Responder Frequency (%) [2, 6]: (50) % | CD8^+ T-cell Responder Frequency [3, 6]: 9/10 | CD8^+ T-cell Responder Frequency (%) [3, 6]: (90) %

Fp14-3/4g (YLKQSLSIA)
CD4^+ T-cell Responder Frequency [2, 6]: 0/10 | CD4^+ T-cell Responder Frequency (%) [2, 6]: (0) % | CD8^+ T-cell Responder Frequency [3, 6]: 6/10 | CD8^+ T-cell Responder Frequency (%) [3, 6]: (60) %

IDFRVLNKLTDKGA [F3-5]
responder frequency of CD8+ T-cell proliferation to individual F3 peptides [3]: 3 of 8

KKKSGKWRMLIDFRV [F3-3]
cytotoxin / CTL-associated activity (in words) [1]: induce cytotoxin expression

LYLKQSLSI [Fp14-3/4e]
cytotoxin and CD107a expression in CD4+ and CD8+ T cells (in words) [1]: high frequency of cytotoxin expression

NPWNTPVFAIKKK [F3-1]
cytotoxin / CTL-associated activity (in words) [1]: induced CTL-associated activities

QASQEVKNWM [Hp15-1a]
cytotoxin and CD107a expression in CD4+ and CD8+ T cells (in words) [1]: high cytotoxin and CD107a expression

QEQNTAEVKL [Fp14-1a]
cytotoxin and CD107a expression in CD4+ and CD8+ T cells (in words) [1]: high cytotoxin and CD107a expression

QNTAEVKLYL [Fp14-1b]
cytotoxin and CD107a expression in CD4+ and CD8+ T cells (in words) [1]: high frequency of cytotoxin expression; also recorded: high cytotoxin and CD107a expression

TPVFAIKKKSGKWRM [F3-2]
responder frequency of CD8+ T-cell proliferation to individual F3 peptides [3]: 3 of 8

VKNWMTQTL [Sp14-1a]
cytotoxin and CD107a expression in CD4+ and CD8+ T cells (in words) [1]: slightly lower number of responses

WRMLIDFRVLNKL [F3-4]
cytotoxin expression / CTL-associated activity in CD8+ T cells (in words) [4]: highest frequency and levels | cytotoxin / CTL-associated activity (in words) [1]: induced CTL-associated activities
